These results are taken from PubChem BioAssay (NCI).

Among the test systems are K-562 leukemia; HL-60(TB) leukemia; OVCAR-8 ovarian; HOP-62 NSCLC; UACC-62 melanoma; OVCAR-4 ovarian; MALME-3M melanoma; NCI-H23 lung; HT29 colon.
What all share (assay): inhibition of tumour cell growth, NCI panel, 48 h

Where “and” joins values, the source holds several entries; their conditions need not be identical. Equal values may be shown once.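 In this assay, cells in 96-well plates receive the compound at five concentrations for 48 hours. Endpoints are linearly interpolated between the surrounding concentrations. GI50: concentration for 50% inhibition of growth. Definition used: TGI = concentration required for complete inhibition of growth.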

Consider `CCCCCCCCCC1C(C)c2c([nH]c3ccccc23)C2C(=O)N(c3ccccc3)C(=O)C21` (configuration not stated), for which the TGI in the test on K-562 leukemia was 15.9 µM; with HL-60(TB) leukemia, 13.4 µM; in the test on OVCAR-8 ovarian it was more than 100 µM; in the test with HOP-62 NSCLC, 31.2 µM; in the test with UACC-62 melanoma, 33.1 µM; with OVCAR-4 ovarian, 19.1 µM. Moreover, the TGI in the test on MALME-3M melanoma was more than 100 µM; in the test with NCI-H23 lung, 13.6 µM; in the test on HT29 colon it was 22.7 µM.

`O=C(O)CCCCCO`: the TGI in the test with K-562 leukemia, in the test with HL-60(TB) leukemia, in the test with OVCAR-8 ovarian, in the test with HOP-62 NSCLC, with UACC-62 melanoma and with OVCAR-4 ovarian was more than 100 µM in each case. Also, the TGI in the test with MALME-3M melanoma, with NCI-H23 lung and in the test on HT29 colon was more than 100 µM each time.

Take `Nc1nc(N)c(N=O)c(Nc2ccc(I)cc2)n1`: the TGI with K-562 leukemia was more than 100 µM; with HL-60(TB) leukemia, 36.7 µM; with OVCAR-8 ovarian, more than 100 µM; with HOP-62 NSCLC it was 51.1 µM; with UACC-62 melanoma, 37.9 µM; in the test with MALME-3M melanoma, 78.3 µM. Further, in the test with NCI-H23 lung, the TGI was 82.5 µM.

As for `COc1cc(C(=O)C/C(CCC(=O)Nc2ccc(Cl)cc2Cl)=N/NC(=O)C(N)=O)ccc1O`, the TGI in the test with K-562 leukemia, in the test on HL-60(TB) leukemia, in the test on OVCAR-8 ovarian, in the test on HOP-62 NSCLC, with UACC-62 melanoma and with OVCAR-4 ovarian was more than 100 µM in each case. The TGI in the test with MALME-3M melanoma, in the test with NCI-H23 lung and with HT29 colon was more than 100 µM throughout.

With `Cc1c(C(=O)/C=C/c2ccccc2Cl)[n+](=O)c2ccccc2n1[O-]`, the TGI with K-562 leukemia turned out to be 26.5 µM; in the test with HL-60(TB) leukemia, 62.8 µM; in the test with OVCAR-8 ovarian, 26.1 µM; in the test on HOP-62 NSCLC, 34.2 µM; in the test with OVCAR-4 ovarian, 25.8 µM; in the test with MALME-3M melanoma, 29.2 µM. Also, the figures for the TGI in the test with NCI-H23 lung and in the test on HT29 colon were 28.5 µM and 33.8 µM, respectively.

In the case of `O=C(CC(=O)Nc1ccccc1O)Nc1ccccc1O`, the TGI in the test on K-562 leukemia was 25.7 µM; in the test with HL-60(TB) leukemia, 6.01 µM; in the test with OVCAR-8 ovarian it was more than 100 µM; in the test on HOP-62 NSCLC it was more than 100 µM; in the test with UACC-62 melanoma, 10.9 µM; in the test with OVCAR-4 ovarian, more than 100 µM. Moreover, the TGI with MALME-3M melanoma is 37.7 µM; in the test with NCI-H23 lung it was 64.3 µM; in the test with HT29 colon it was more than 100 µM.

Turning to `CCOC(=O)C(Cc1ccccc1)NC(=O)OC(C)(C)C` (configuration not stated), the TGI in the test with K-562 leukemia, with HL-60(TB) leukemia, in the test on OVCAR-8 ovarian, in the test on HOP-62 NSCLC, in the test with UACC-62 melanoma and in the test on MALME-3M melanoma was more than 100 µM in each case. Moreover, the TGI in the test with NCI-H23 lung and with HT29 colon was more than 100 µM throughout.

On to `CC1=C(C(=O)CC(=O)C(=O)Nc2ccccc2)Sc2ccccc2N1`, for which the TGI with K-562 leukemia, in the test with HL-60(TB) leukemia, in the test on OVCAR-8 ovarian, in the test on HOP-62 NSCLC, in the test with UACC-62 melanoma and with OVCAR-4 ovarian was more than 100 µM each time. The TGI in the test on MALME-3M melanoma, with NCI-H23 lung and in the test with HT29 colon was more than 100 µM throughout.

As for `Nc1ncnc2c(C3OC(CO)C(O)C3O)scc12` (configuration not stated), the TGI was 0.03 µM in the test with K-562 leukemia; 0.00946 µM in the test with HL-60(TB) leukemia; 2.02 µM and 3.02 µM in the test with HOP-62 NSCLC; 2.24 µM and 0.746 µM in the test with OVCAR-4 ovarian; 24.4 µM with MALME-3M melanoma; 1.33 µM and 1.39 µM in the test on NCI-H23 lung. The TGI in the test on HT29 colon was determined as 1.12 µM. Further, the GI50 in the test with HOP-62 NSCLC is 0.12 µM; in the test with MALME-3M melanoma it was 4.35 µM; with NCI-H23 lung it was 0.0585 µM.

Take `CCOC(=O)N1N=NC2C3OC(C[C@@]3(C#N)OC(C)=O)[C@H]21` (some centres not stated): the TGI with K-562 leukemia, in the test with HL-60(TB) leukemia, in the test on OVCAR-8 ovarian, in the test on HOP-62 NSCLC, with UACC-62 melanoma and in the test with OVCAR-4 ovarian was more than 100 µM throughout. The TGI in the test with MALME-3M melanoma, in the test with NCI-H23 lung and with HT29 colon was more than 100 µM each time.

Consider `CN(C)CCNC(=O)Cn1ccc(=O)c2ccc([N+](=O)[O-])cc21`, for which the TGI in the test with K-562 leukemia, in the test on HL-60(TB) leukemia, in the test with HOP-62 NSCLC, in the test with UACC-62 melanoma, in the test on OVCAR-4 ovarian and in the test on MALME-3M melanoma was more than 100 µM each time. The TGI with NCI-H23 lung and in the test on HT29 colon was more than 100 µM each time.

For `COc1cc2ccnc(-c3c4ccccc4c(N)c4c(OC)c(OC)ccc34)c2cc1OC`, the TGI worked out at 7.98 µM in the test on K-562 leukemia; 4.44 µM with HL-60(TB) leukemia; 14.9 µM with HOP-62 NSCLC; 10.1 µM in the test with UACC-62 melanoma; 11.7 µM in the test with OVCAR-4 ovarian; 11.5 µM in the test on MALME-3M melanoma. For the same compound, the TGI was 17.7 µM in the test on NCI-H23 lung and 11.7 µM in the test on HT29 colon.

`CCC[CH2][Ge]([CH2]CCC)([CH2]CCC)[O]C(=O)C(OC)c1ccccc1` (configuration not stated): the GI50 in the test with K-562 leukemia is 2.07 µM; in the test on HL-60(TB) leukemia it was 2.96 µM; in the test with OVCAR-8 ovarian, 70.2 µM; in the test on HOP-62 NSCLC it was 20.6 µM; in the test with UACC-62 melanoma it was 30.7 µM; in the test with OVCAR-4 ovarian it was 15.3 µM. Moreover, the results for the GI50 in the test on MALME-3M melanoma, in the test on NCI-H23 lung and in the test on HT29 colon were 26.7 µM, 6.86 µM and 25.4 µM, respectively. In addition, the TGI with K-562 leukemia was more than 100 µM; with HL-60(TB) leukemia it was more than 26.1 µM; in the test on OVCAR-8 ovarian, more than 100 µM; in the test with HOP-62 NSCLC it was more than 70.6 µM; with UACC-62 melanoma it was more than 100 µM; in the test on OVCAR-4 ovarian it was more than 100 µM. Besides, the results for the TGI in the test with MALME-3M melanoma, in the test with NCI-H23 lung and in the test on HT29 colon were more than 100 µM, 51.8 µM and more than 100 µM, respectively.

On to `COc1c(NC(=O)CC(C)=O)[c]([Hg][O]C(C)=O)c(OC)c(Cl)[c]1[Hg][O]C(C)=O`, for which the GI50 in the test on K-562 leukemia was 8.46 µM; with OVCAR-8 ovarian, 17.8 µM; with HOP-62 NSCLC, 20.2 µM; in the test with UACC-62 melanoma it was 11 µM; in the test with OVCAR-4 ovarian, 14.5 µM; in the test with MALME-3M melanoma, 5.17 µM. The GI50 in the test with NCI-H23 lung was 11.8 µM; in the test on HT29 colon it was 11.3 µM. Besides, the TGI in the test with K-562 leukemia came to 41.1 µM; in the test on OVCAR-8 ovarian it was 36.3 µM; in the test with HOP-62 NSCLC, 36.6 µM; in the test with UACC-62 melanoma it was 22.9 µM; in the test with OVCAR-4 ovarian, 35.7 µM; in the test on MALME-3M melanoma it was 16.8 µM. Further, the TGI is 27.6 µM in the test with NCI-H23 lung and 32.6 µM in the test with HT29 colon.
